Reference: US5916904A, “Antimicrobial agent” (Eisai Co., Ltd., priority 1992, dated 1999)
Values after ≈ are worked out from the molar mass of the structure shown.

How the values were obtained:
[1] = tested on: C. pylori; assay: antibiotic activity against C. pylori, overall conclusion; format: cell-based; conditions: compared with antibiotic substances / known compounds
[2] = tested on: C. pylori EI-925; assay: MIC by agar dilution method, C. pylori clinical isolate EI-925; format: cell-based; conditions: Helicobacter pylori, EI925, 72 h; EI-925, clinical isolate; in vitro, 37° C., pH 7.0, 3 days, microaerophilic; read-out: antibiotic activity (MIC)
[3] = tested on: C. pylori NCTC11916; assay: MIC by agar dilution method, C. pylori standard strain NCTC11916; format: cell-based; conditions: Helicobacter pylori, 72 h, in vitro, 37° C., pH 7.0, 3 days, microaerophilic, read-out: antibiotic activity (MIC)
[4] = tested on: C. pylori EI-2; assay: MIC by agar dilution method, C. pylori clinical isolate EI-2; format: cell-based; conditions: Helicobacter pylori, EI2, 72 h; EI-2, clinical isolate; in vitro, 37° C., pH 7.0, 3 days, microaerophilic; read-out: antibiotic activity (MIC)
[5] = tested on: C. pylori EI-930; assay: MIC by agar dilution method, C. pylori clinical isolate EI-930; format: cell-based; conditions: Helicobacter pylori, EI930, 72 h; EI-930, clinical isolate; in vitro, 37° C., pH 7.0, 3 days, microaerophilic; read-out: antibiotic activity (MIC)
[6] = Acute Toxicological Test in rats; conditions: rat, in vivo, one time
Method: (§1) The compound (I) of the invention was administered Intravenously or orally one time, with a carrier of saline, to Slc:SD rats and Slc:ICR mouse, each being 7 or 8 weeks old, in a group consisting of five males and five females, to determine LD50 values.
(§2) Acute toxicity of the compound (I) is shown in terms of LD50 in unit of mg/kg.

[7] = Acute Toxicological Test in mice; conditions: mouse, in vivo, one time
Method: as §1, §2

[8] = tested on: C. pylori EI-467; assay: MIC by agar dilution method, C. pylori clinical isolate EI-467; format: cell-based; conditions: Helicobacter pylori, EI467, 72 h; EI-467, clinical isolate; in vitro, 37° C., pH 7.0, 3 days, microaerophilic; read-out: antibiotic activity (MIC)
[9] = tested on: C. pylori EI-612; assay: MIC by agar dilution method, C. pylori clinical isolate EI-612; format: cell-based; conditions: Helicobacter pylori, EI612, 72 h; EI-612, clinical isolate; in vitro, 37° C., pH 7.0, 3 days, microaerophilic; read-out: antibiotic activity (MIC)
[10] = tested on: C. pylori EI-393; assay: MIC by agar dilution method, C. pylori clinical isolate EI-393; format: cell-based; conditions: Helicobacter pylori, EI393, 72 h; EI-393, clinical isolate; in vitro, 37° C., pH 7.0, 3 days, microaerophilic; read-out: antibiotic activity (MIC)
[11] = tested on: C. pylori EI-933; assay: MIC by agar dilution method, C. pylori clinical isolate EI-933; format: cell-based; conditions: Helicobacter pylori, EI933, 72 h; EI-933, clinical isolate; in vitro, 37° C., pH 7.0, 3 days, microaerophilic; read-out: antibiotic activity (MIC)
[12] = tested on: C. pylori EI-391; assay: MIC by agar dilution method, C. pylori clinical isolate EI-391; format: cell-based; conditions: Helicobacter pylori, EI391, 72 h; EI-391, clinical isolate (resistant); in vitro, 37° C., pH 7.0, 3 days, microaerophilic; read-out: antibiotic activity (MIC)
[13] = tested on: C. pylori EI-46; assay: MIC by agar dilution method, C. pylori clinical isolate EI-46; format: cell-based; conditions: Helicobacter pylori, EI46, 72 h; EI-46, clinical isolate (resistant); in vitro, 37° C., pH 7.0, 3 days, microaerophilic; read-out: antibiotic activity (MIC)
[14] = tested on: C. pylori NCTC11637; assay: MIC by agar dilution method, C. pylori standard strain NCTC11637; format: cell-based; conditions: Helicobacter pylori, 72 h, in vitro, 37° C., pH 7.0, 3 days, microaerophilic, read-out: antibiotic activity (MIC)
[15] = tested on: C. pylori EI-429; assay: MIC by agar dilution method, C. pylori clinical isolate EI-429; format: cell-based; conditions: Helicobacter pylori, EI429, 72 h; EI-429, clinical isolate; in vitro, 37° C., pH 7.0, 3 days, microaerophilic; read-out: antibiotic activity (MIC)
[16] = tested on: C. pylori EI-5; assay: MIC by agar dilution method, C. pylori clinical isolate EI-5; format: cell-based; conditions: Helicobacter pylori, EI5, 72 h; EI-5, clinical isolate; in vitro, 37° C., pH 7.0, 3 days, microaerophilic; read-out: antibiotic activity (MIC)
[17] = tested on: C. pylori EI-36; assay: MIC by agar dilution method, C. pylori clinical isolate EI-36; format: cell-based; conditions: Helicobacter pylori, EI36, 72 h; EI-36, clinical isolate; in vitro, 37° C., pH 7.0, 3 days, microaerophilic; read-out: antibiotic activity (MIC)
[18] = tested on: C. pylori EI-397; assay: MIC by agar dilution method, C. pylori clinical isolate EI-397; format: cell-based; conditions: Helicobacter pylori, EI397, 72 h; EI-397, clinical isolate; in vitro, 37° C., pH 7.0, 3 days, microaerophilic; read-out: antibiotic activity (MIC)
[19] = tested on: C. pylori; conditions: JP-A 2-209809 and JP-A 3-173817; cited from earlier work
[20] = tested on: C. pylori 8005; conditions: C. pylori 8005, clinical isolate; JP-A 2-209809; cited from earlier work

SMILES | C. pylori-eradicating activity [1] | MIC [2] [µg/mL] | MIC [3] [µg/mL] | MIC [4] [µg/mL] | MIC [5] [µg/mL] | MIC [8] [µg/mL] | MIC [9] [µg/mL] | MIC [10] [µg/mL] | MIC [11] [µg/mL] | MIC [12] [µg/mL] | MIC [13] [µg/mL] | MIC [14] [µg/mL] | MIC [15] [µg/mL] | MIC [16] [µg/mL] | MIC [17] [µg/mL] | MIC [18] [µg/mL] | other results
COCCCOc1ccnc(C[S+]([O-])c2nc3ccccc3[nH]2)c1C (stereo not drawn) [(I), 2-[(4-(3-Methoxypropoxy)-3-methylpyridine-2-yl)-methylsulfinyl]-1H-benzimidazole] | the same C. pylori-eradicating activity as an antibiotic substance | 3.13 (≈ 8.71 µM) | 3.13 (≈ 8.71 µM) | 3.13 (≈ 8.71 µM) | 3.13 (≈ 8.71 µM) | 1.56 (≈ 4.34 µM) | 0.4 (≈ 1.11 µM) | 3.13 (≈ 8.71 µM) | 3.13 (≈ 8.71 µM) | 3.13 (≈ 8.71 µM) | 3.13 (≈ 8.71 µM) | 3.13 (≈ 8.71 µM) | 1.56 (≈ 4.34 µM) | 3.13 (≈ 8.71 µM) | 6.25 (≈ 17.4 µM) | 3.13 (≈ 8.71 µM) | LD50 ([6]; iv, female): 152 mg/kg; LD50 ([6]; iv, male): 157 mg/kg; LD50 ([6]; po, female): 1330 mg/kg; LD50 ([6]; po, male): 1450 mg/kg; LD50 ([7]; iv, female): 237 mg/kg; LD50 ([7]; iv, male): 220 mg/kg; LD50 ([7]; po, female): 1010 mg/kg; LD50 ([7]; po, male): 1210 mg/kg
COCCCOc1ccnc(CSc2nc3ccccc3[nH]2)c1C [(II), 2-[(4-(3-Methoxypropoxy)-3-methylpyridine-2-yl)-methylthio]-1H-benzimidazole] | the same C. pylori-eradicating activity as an antibiotic substance | 0.4 (≈ 1.16 µM) | 0.2 (≈ 0.582 µM) | 0.4 (≈ 1.16 µM) | 0.4 (≈ 1.16 µM) | 1.56 (≈ 4.54 µM) | 0.8 (≈ 2.33 µM) | 1.56 (≈ 4.54 µM) | 0.8 (≈ 2.33 µM) | 1.56 (≈ 4.54 µM) | 0.4 (≈ 1.16 µM) | 0.8 (≈ 2.33 µM) | 1.56 (≈ 4.54 µM) | 0.2 (≈ 0.582 µM) | 0.4 (≈ 1.16 µM) | 1.56 (≈ 4.54 µM) | –
COc1ccc2[nH]c([S+]([O-])Cc3ncc(C)c(OC)c3C)nc2c1 (stereo not drawn) [(III), 5-Methoxy-2-[{(4-methoxy-3,5-dimethyl-2-pyridinyl)methyl}sulfinyl]-1H-benzimidazole] | – | 25 (≈ 72.4 µM) | 25 (≈ 72.4 µM) | 25 (≈ 72.4 µM) | 25 (≈ 72.4 µM) | 50 (≈ 145 µM) | 25 (≈ 72.4 µM) | 50 (≈ 145 µM) | 25 (≈ 72.4 µM) | 50 (≈ 145 µM) | 25 (≈ 72.4 µM) | 50 (≈ 145 µM) | 25 (≈ 72.4 µM) | 50 (≈ 145 µM) | 25 (≈ 72.4 µM) | 50 (≈ 145 µM) | antibiotic activity [19]: lacks sufficient antibiotic activity; antibiotic activity [20]: has antibiotic activity against C. pylori 8005
COc1ccc2[nH]c(SCc3ncc(C)c(OC)c3C)nc2c1 [(IV), 5-Methoxy-2-{(4-methoxy-3,5-dimethyl-2-pyridinyl)methylthio}-1H-benzimidazole] | – | 12.5 (≈ 37.9 µM) | 12.5 (≈ 37.9 µM) | 25 (≈ 75.9 µM) | 12.5 (≈ 37.9 µM) | 12.5 (≈ 37.9 µM) | 12.5 (≈ 37.9 µM) | 25 (≈ 75.9 µM) | 12.5 (≈ 37.9 µM) | 25 (≈ 75.9 µM) | 12.5 (≈ 37.9 µM) | 25 (≈ 75.9 µM) | 25 (≈ 75.9 µM) | 25 (≈ 75.9 µM) | 12.5 (≈ 37.9 µM) | 25 (≈ 75.9 µM) | –
Cc1c(OCC(F)(F)F)ccnc1CSc1nc2ccccc2[nH]1 [(V), 2-[{3-Methyl-4-(2,2,2-trifluoroethoxy)pyrid-2-yl}methylthio]-1H-benzimidazole] | – | 12.5 (≈ 35.4 µM) | 12.5 (≈ 35.4 µM) | 25 (≈ 70.7 µM) | 12.5 (≈ 35.4 µM) | 12.5 (≈ 35.4 µM) | 6.25 (≈ 17.7 µM) | 25 (≈ 70.7 µM) | 12.5 (≈ 35.4 µM) | 12.5 (≈ 35.4 µM) | 12.5 (≈ 35.4 µM) | 25 (≈ 70.7 µM) | 25 (≈ 70.7 µM) | 12.5 (≈ 35.4 µM) | 12.5 (≈ 35.4 µM) | 25 (≈ 70.7 µM) | –
